Literature values in patent US20230228656A1, “Functionalized Blood Sampling Device and Method for PEth Measurement” (CAPITAINER AB, priority 2020, published 2023).

Tested on: PLD
Settings: literature assessment; considered unsuitable for clinical use; cited from earlier work

SMILES | potency as PLD inhibitor
O=C(NCCN1CCC(n2c(=O)[nH]c3ccccc32)CC1)c1cc2cc(F)ccc2[nH]1 [FIPI, 5-fluoro-2-indolyl-deschlorohalopemide] | low potency
O=C(NCCN1CCC(n2c(=O)[nH]c3cc(Cl)ccc32)CC1)c1ccc(F)cc1 [halopemide] | low potency
